Common to all, as to assay type: in vivo
For assay [1], the system named is Eiysiphe graminis f. sp. tritici. Description: Test A: wheat powdery mildew, preventive spray on wheat seedlings. The conditions noted are these: for Test A disease control rating: wheat powdery mildew; for Test A disease control rating (100 = 100% disease control, 0 = no disease control): wheat seedlings sprayed to run-off, inoculated the following day, rating relative to controls, unmarked compounds (standard test rate). Put shortly: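 Compounds (3% acetone, 250 ppm Trem 014) sprayed to run-off on wheat seedlings, inoculated next day with spore dust. Incubated 7 days at 20° C before disease rating, 0–100% control relative to untreated controls.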

Assay [2] deals with Botrytis cinerea. Description: Test E: gray mold, preventive spray on cucumber seedlings. The conditions noted are these: for Test E disease control rating: gray mold on cucumber; for Test E disease control rating (100 = 100% disease control, 0 = no disease control): cucumber seedlings sprayed to run-off, inoculated the following day, rating relative to controls, unmarked compounds (standard test rate). Put shortly:
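Compounds in 3% acetone were suspended with 250 ppm Trem 014 surfactant and sprayed to run-off on cucumber seedlings. B. cinerea spores were inoculated next day, then 48 h saturated humidity at 20° C and 5 days at 20° C. Disease control rated 0–100% versus controls.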

For assay [3], the system named is Puccinia recondita. Description: Test B: wheat leaf rust, preventive spray on wheat seedlings. The conditions noted are these: for Test B disease control rating: wheat leaf rust; for Test B disease control rating (100 = 100% disease control, 0 = no disease control): wheat seedlings sprayed to run-off, inoculated the following day, rating relative to controls, unmarked compounds (standard test rate). Put shortly:
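Wheat seedlings were sprayed to run-off with compound (3% acetone, 250 ppm Trem 014), then inoculated with P. recondita spores the next day. They were held 24 h saturated at 20 °C, then 6 days at 20 °C. Ratings are 0–100% disease control versus controls.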

Assay [4] has as its system Phytophthora infestans. The conditions noted are these: for Test D disease control rating: tomato late blight; for Test D disease control rating (100 = 100% disease control, 0 = no disease control): tomato seedlings sprayed to run-off, inoculated the following day, rating relative to controls, unmarked compounds (standard test rate).
In assay [5] the test system is Pyricularia oryzae. The conditions noted are these: for Test C disease control rating: rice blast; for Test C disease control rating (100 = 100% disease control, 0 = no disease control): rice seedlings sprayed to run-off, inoculated the following day, rating relative to controls, unmarked compounds (standard test rate).
[6] abbreviates: 100 = 100% disease control, 0 = no control relative to controls, unmarked entries (standard test concentration).
The mark [7] stands for this setting: 100 = 100% disease control, 0 = no control, unmarked entries (standard test concentration).

Read-outs that look alike come from different tables or passages of the source.

Turning to `C[C@H](COc1ccc(Cl)cc1F)NC(=O)C(C#N)C(C)(C)C` (single isomer, unassigned) [36a], the “Test A disease control rating” value in assay [1] (setting [6]) is 0%. Moreover, in assay [2] (setting [7]), the “Test E disease control rating” value worked out at 0%. Moreover, the “Test B disease control rating” value in assay [3] (setting [7]) is listed as 27%. The “Test D disease control rating” value in assay [4] (setting [7]) amounted to 89%. Also, the “Test C disease control rating” value in assay [5] (setting [7]) was 99%.

With `CCc1ccccc1OCC(C)NC(=O)C1(CC)C(C)C1(Cl)Cl` (mixture of isomers) [97a], the “Test A disease control rating” value in assay [1] (tested at 40 ppm) worked out at 0%. In addition, in assay [2] (tested at 40 ppm), the “Test E disease control rating” value worked out at 0%. The “Test B disease control rating” value in assay [3] (tested at 40 ppm) turned out to be 0%. For the same molecule, the “Test D disease control rating” value in assay [4] (tested at 40 ppm) stood at 20%. Moreover, the “Test C disease control rating” value in assay [5] (tested at 40 ppm) was 0%.

For `C[C@H](COc1cc(Cl)cc(Cl)c1Cl)NC(=O)C(C#N)C(C)(C)C` (single isomer, unassigned) [170b], the “Test A disease control rating” value in assay [1] (setting [6]) came out at 61%. Besides, in assay [2] (setting [7]), the “Test E disease control rating” value is listed as 95%. Also, in assay [3] (setting [7]), the “Test B disease control rating” value was found to be 68%. Also, the “Test D disease control rating” value in assay [4] (setting [7]) was 23%. For the same molecule, the “Test C disease control rating” value in assay [5] (setting [7]) is given as 53%.

As for `CCC1(C(=O)NC(C)COc2ccccc2C#N)C(C)C1(Cl)Cl` (mixture of isomers) [89a], the “Test A disease control rating” value in assay [1] (setting [6]) came to 0%. Besides, in assay [2] (setting [7]), the “Test E disease control rating” value turned out to be 0%. In addition, the “Test B disease control rating” value in assay [3] (setting [7]) came out at 0%. Moreover, the “Test D disease control rating” value in assay [4] (setting [7]) was determined as 20%. The “Test C disease control rating” value in assay [5] (setting [7]) is recorded as 74%.

`C[C@H](COc1cccc(F)c1F)NC(=O)C(C#N)C(C)(C)C` (single isomer, unassigned) [26b]: the “Test A disease control rating” value in assay [1] (setting [6]) was 38%. Also, the “Test E disease control rating” value in assay [2] (setting [7]) turned out to be 0%. Also, the “Test B disease control rating” value in assay [3] (setting [7]) worked out at 68%. The “Test D disease control rating” value in assay [4] (setting [7]) was 81%. For the same molecule, in assay [5] (setting [7]), the “Test C disease control rating” value amounted to 100%.

For `CC(COc1ccccc1CC#N)NC(=O)C(C#N)C(C)C(C)(C)C` (mixture of isomers) [compound 61], the “Test A disease control rating” value in assay [1] (tested at 40 ppm) was 74%. For the same molecule, the “Test E disease control rating” value in assay [2] (tested at 40 ppm) turned out to be 0%. Also, in assay [3] (tested at 40 ppm), the “Test B disease control rating” value came to 0%. Further, the “Test D disease control rating” value in assay [4] (tested at 40 ppm) is listed as 0%. Besides, the “Test C disease control rating” value in assay [5] (tested at 40 ppm) was 73%.

Consider `CC(C)C(C#N)C(=O)NC(C)C(Oc1cc(F)ccc1C#N)c1ccccc1` (mixture of isomers) [compound 289], for which the “Test A disease control rating (100 = 100% disease control, 0 = no disease control)” value in assay [1] is 0%. Moreover, in assay [2], the “Test E disease control rating (100 = 100% disease control, 0 = no disease control)” value was 0%. Also, the “Test B disease control rating (100 = 100% disease control, 0 = no disease control)” value in assay [3] is on record as 0%. The “Test D disease control rating (100 = 100% disease control, 0 = no disease control)” value in assay [4] was 45%. Further, in assay [5], the “Test C disease control rating (100 = 100% disease control, 0 = no disease control)” value worked out at 90%.

As for `CCC1(C(=O)NC(C)COc2cccc(I)c2)C(C)C1(Cl)Cl` (mixture of isomers) [compound 88], in assay [1] (tested at 40 ppm), the “Test A disease control rating” value is 52%. The “Test E disease control rating” value in assay [2] (tested at 40 ppm) is 0%. Further, in assay [3] (tested at 40 ppm), the “Test B disease control rating” value is 0%. Also, the “Test D disease control rating” value in assay [4] (tested at 40 ppm) was found to be 0%. The “Test C disease control rating” value in assay [5] (tested at 40 ppm) was 0%.

`CC(C=Cc1ccccc1F)NC(=O)C(C#N)C(C)(C)C` (mixture of isomers) [compound 308]: in assay [1], the “Test A disease control rating (100 = 100% disease control, 0 = no disease control)” value is reported as 86%. For the same molecule, the “Test E disease control rating (100 = 100% disease control, 0 = no disease control)” value in assay [2] was determined as 0%. The “Test B disease control rating (100 = 100% disease control, 0 = no disease control)” value in assay [3] worked out at 28%. Moreover, in assay [4], the “Test D disease control rating (100 = 100% disease control, 0 = no disease control)” value is on record as 45%. Besides, the “Test C disease control rating (100 = 100% disease control, 0 = no disease control)” value in assay [5] was found to be 100%.

For `CC(C=Cc1cc(F)ccc1F)NC(=O)C(C#N)C(C)(C)C` (single isomer, unassigned) [229b], the “Test A disease control rating (100 = 100% disease control, 0 = no disease control)” value in assay [1] came to 0%. Further, in assay [2], the “Test E disease control rating (100 = 100% disease control, 0 = no disease control)” value amounted to 95%. The “Test B disease control rating (100 = 100% disease control, 0 = no disease control)” value in assay [3] worked out at 0%. For the same molecule, the “Test D disease control rating (100 = 100% disease control, 0 = no disease control)” value in assay [4] is 25%. Moreover, the “Test C disease control rating (100 = 100% disease control, 0 = no disease control)” value in assay [5] is listed as 100%.

Consider `CCC1(C(=O)NC(C)COc2cccc(F)c2)C(C)C1(Cl)Cl` (mixture of isomers) [79b], for which, in assay [1] (tested at 40 ppm), the “Test A disease control rating” value is 0%. For the same molecule, in assay [2] (tested at 40 ppm), the “Test E disease control rating” value was determined as 0%. The “Test B disease control rating” value in assay [3] (tested at 40 ppm) worked out at 0%. Moreover, the “Test D disease control rating” value in assay [4] (tested at 40 ppm) is listed as 0%. For the same molecule, the “Test C disease control rating” value in assay [5] (tested at 40 ppm) is reported as 100%.

Consider `CCC1(C(=O)NC(C)COn2c(C)cc(C)c2C#N)C(C)C1(Cl)Cl` (mixture of isomers) [compound 136], for which, in assay [1] (setting [6]), the “Test A disease control rating” value amounted to 34%. The “Test E disease control rating” value in assay [2] (setting [7]) turned out to be 0%. Further, the “Test B disease control rating” value in assay [3] (setting [7]) came out at 0%. The “Test D disease control rating” value in assay [4] (setting [7]) was 0%. In addition, in assay [5] (setting [7]), the “Test C disease control rating” value was determined as 78%.

With `CC(COc1cccc(I)c1C#N)NC(=O)C(C#N)C(C)(C)C` (mixture of isomers) [compound 45], the “Test A disease control rating” value in assay [1] (setting [6]) was 0%. Also, the “Test E disease control rating” value in assay [2] (setting [7]) turned out to be 0%. For the same molecule, the “Test B disease control rating” value in assay [3] (setting [7]) amounted to 0%. Moreover, the “Test D disease control rating” value in assay [4] (setting [7]) was 0%. In addition, the “Test C disease control rating” value in assay [5] (setting [7]) is reported as 86%.

Consider `CC(COc1ccc(C(C)(C)C)cc1)NC(=O)C(C#N)C(C)(C)C` (mixture of isomers) [compound 24], for which, in assay [1] (setting [6]), the “Test A disease control rating” value was 62%. Moreover, the “Test E disease control rating” value in assay [2] (setting [7]) is on record as 94%. The “Test B disease control rating” value in assay [3] (setting [7]) worked out at 0%. For the same molecule, the “Test D disease control rating” value in assay [4] (setting [7]) is given as 66%. Besides, in assay [5] (setting [7]), the “Test C disease control rating” value is given as 53%.

In the case of `CCC1(C(=O)NC(C)COc2cccc(F)c2)C(C)C1(Cl)Cl` (mixture of isomers) [79a], in assay [1] (tested at 40 ppm), the “Test A disease control rating” value stood at 0%. For the same molecule, in assay [2] (tested at 40 ppm), the “Test E disease control rating” value amounted to 0%. For the same molecule, the “Test B disease control rating” value in assay [3] (tested at 40 ppm) is reported as 0%. Besides, the “Test D disease control rating” value in assay [4] (tested at 40 ppm) is reported as 0%. Further, the “Test C disease control rating” value in assay [5] (tested at 40 ppm) is 53%.

`CC(C)(C)C(C#N)C(=O)NC/C=C/c1ccccc1F` (racemic) [compound 178]: the “Test A disease control rating” value in assay [1] (setting [6]) was 0%. The “Test E disease control rating” value in assay [2] (setting [7]) is reported as 58%. In assay [3] (setting [7]), the “Test B disease control rating” value was 0%. In addition, the “Test D disease control rating” value in assay [4] (setting [7]) was 0%. Further, the “Test C disease control rating” value in assay [5] (setting [7]) turned out to be 53%.

For the molecule `C[C@H](COc1cc(Cl)c(Cl)cc1Cl)NC(=O)C(C#N)C(C)(C)C` (single isomer, unassigned) [174b], in assay [1] (setting [6]), the “Test A disease control rating” value is given as 0%. Also, the “Test E disease control rating” value in assay [2] (setting [7]) is recorded as 0%. Besides, the “Test B disease control rating” value in assay [3] (setting [7]) is reported as 28%. Besides, the “Test D disease control rating” value in assay [4] (setting [7]) was determined as 91%. Besides, in assay [5] (setting [7]), the “Test C disease control rating” value is given as 52%.

Consider `CCC1(C(=O)NC(C)COc2c(F)cccc2F)C(C)C1(Cl)Cl` (centres unmarked) [105b], for which the “Test A disease control rating” value in assay [1] (tested at 40 ppm) was 21%. Also, the “Test E disease control rating” value in assay [2] (tested at 40 ppm) is 0%. In addition, the “Test B disease control rating” value in assay [3] (tested at 40 ppm) came out at 0%. Also, the “Test D disease control rating” value in assay [4] (tested at 40 ppm) was determined as 0%. For the same molecule, the “Test C disease control rating” value in assay [5] (tested at 40 ppm) came out at 74%.

`CC(C=Cc1ccccc1)NC(=O)C(C#N)C(C)(C)C` (mixture of isomers) [compound 228]: in assay [1], the “Test A disease control rating (100 = 100% disease control, 0 = no disease control)” value is 95%. Besides, the “Test E disease control rating (100 = 100% disease control, 0 = no disease control)” value in assay [2] is 47%. Besides, the “Test B disease control rating (100 = 100% disease control, 0 = no disease control)” value in assay [3] was 0%. The “Test D disease control rating (100 = 100% disease control, 0 = no disease control)” value in assay [4] is 7%. Besides, the “Test C disease control rating (100 = 100% disease control, 0 = no disease control)” value in assay [5] is given as 52%.

(Values after US6642392B1 (priority 1997, dated 2003).)
